One assay has as its system LNCaP. As to the kind of experiment: Cytotoxicity against human LNCAP cells. Format: functional. The following applies: read-out: ED50 (the source's name).
The next assay concerns Col2. Nature of the assay: Cytotoxicity against human Col2 cells. Format: functional. The note with it: read-out: ED50 (the source's name).
The next assay deals with KB. Nature of the assay: Cytotoxicity against human KB cells. It counts as functional. The note with it: read-out: ED50 (the source's name).
The test system of the next assay is ZR-75-1. As to the kind of experiment: Cytotoxicity against human ZR-75-1 cells. Format: functional. The note with it: read-out: ED50 (the source's name).
The next assay concerns SK-MEL-2. Nature of the assay: Cytotoxicity against human SK-MEL-2 cells. Format: functional. The following applies: read-out: ED50 (the source's name).
Another assay relates to Lu1. Nature of the assay: Cytotoxicity against human Lu1 cells. The note with it: read-out: ED50 (the source's name). Format: functional.
For another assay, the system named is HT-1080. Nature of the assay: Cytotoxicity against human HT1080 cells. Format: functional. The following applies: read-out: ED50 (the source's name).
The nature of assay [1]: Cytotoxicity against human vinblastine-resistant KBV1 cells. It counts as functional. The note with it: KB-V1, read-out: ED50 (the source's name).
Another assay deals with P388. Nature of the assay: Cytotoxicity against mouse P388 cells. It counts as functional. The note with it: read-out: ED50 (the source's name).
The subject of another assay is A-431. Nature of the assay: Cytotoxicity against human A431 cells. Format: functional. The following applies: read-out: ED50 (the source's name).
Another assay has as its system ASK. As to the kind of experiment: Antimitotic activity in rat ASK cells at 0.32 to 20 ug/mL. Format: functional, cell-based.
Assay [2] is described as follows: Cytotoxicity against human BC1 cells. It counts as functional. The note with it: read-out: ED50 (the source's name).

≈ marks a conversion by molar mass, not a printed value. Calls of active or inactive are those of the source. The calls are words filed in the database; no cut-off is given here.

Turning to `C=C1CC[C@@H]2[C@H]([C@H]3[C@H]1CC[C@]3(C)O)C2(C)C` [SPATHULENOL], the EC50 with LNCaP, in the assay with Col2, in the assay with KB, in the assay on ZR-75-1, in the assay on SK-MEL-2 and with Lu1 was above 20 µg/mL each time. Moreover, the EC50 (in the assay on HT-1080; in [1]; with P388; in the assay with A-431; in assay [2]) was above 20 µg/mL in each case. The result in the assay on ASK was inactive.
For the molecule `CC1(C)C(=O)CC[C@]2(C)[C@H]3CC=C4[C@@H]5C[C@](C)(C(=O)O)CC[C@]5(C)CC[C@@]4(C)[C@]3(C)CC[C@@H]12`, the EC50 with LNCaP was 10 µg/mL (≈ 22 µM); in the assay with Col2 it was above 20 µg/mL; in the assay on KB, 4.9 µg/mL (≈ 10.8 µM); in the assay with ZR-75-1, 5.2 µg/mL (≈ 11.4 µM); in the assay with SK-MEL-2, 12 µg/mL (≈ 26.4 µM); with Lu1 it was 10 µg/mL (≈ 22 µM). Besides, the EC50 with HT-1080 was above 20 µg/mL; in [1], 8.5 µg/mL (≈ 18.7 µM); in the assay with P388, 0.61 µg/mL (≈ 1.34 µM); in the assay with A-431, above 20 µg/mL; in [2], above 20 µg/mL.
`C=C(C)[C@@H]1CC[C@]2(C)[C@H](CC=C3[C@@H]4C[C@@](C)(C(=O)O)CC[C@]4(C)CC[C@]32C)[C@@]1(C)CCC(=O)O` [KOETJAPIC ACID]: the EC50 in the assay on LNCaP, in the assay with Col2, with KB, in the assay on ZR-75-1, with SK-MEL-2 and in the assay on Lu1 was above 20 µg/mL in each case. In addition, the EC50 (in the assay with HT-1080; in [1]; in the assay with P388; in the assay on A-431; in assay [2]) was above 20 µg/mL throughout. The result with ASK was inactive.
For `CC1(C)[C@H](O)CC[C@]2(C)[C@H]3CC=C4[C@@H]5C[C@](C)(C(=O)O)CC[C@]5(C)CC[C@@]4(C)[C@]3(C)CC[C@@H]12` [KATONIC ACID], the EC50 with LNCaP is 10 µg/mL (≈ 21.9 µM); with Col2, above 20 µg/mL; with KB, 8.3 µg/mL (≈ 18.2 µM); with ZR-75-1, 2.2 µg/mL (≈ 4.82 µM); with SK-MEL-2 it was 12 µg/mL (≈ 26.3 µM); with Lu1, 11 µg/mL (≈ 24.1 µM). Besides, the EC50 came to 19 µg/mL (≈ 41.6 µM) with HT-1080; 15 µg/mL (≈ 32.8 µM) in assay [1]; 0.11 µg/mL (≈ 0.241 µM) in the assay with P388; 12 µg/mL (≈ 26.3 µM) in the assay on A-431; 7.8 µg/mL (≈ 17.1 µM) in assay [2].
Turning to `C=C1CC[C@@H]2[C@H]([C@H]3[C@@H](C)CC[C@@H]13)C2(C)C`, the EC50 in the assay on LNCaP, with Col2, in the assay with KB, with ZR-75-1, in the assay with SK-MEL-2 and with Lu1 was above 20 µg/mL each time. In addition, the EC50 (with HT-1080; in assay [1]; in the assay with P388; in the assay on A-431; in [2]) was above 20 µg/mL each time. Also, the result with ASK was inactive.
Consider `C=C1CC[C@@H]2O[C@]2(C)CC[C@@H]2[C@@H]1CC2(C)C`, for which the EC50 with LNCaP, with Col2, with KB, in the assay with ZR-75-1, in the assay on SK-MEL-2 and in the assay on Lu1 was above 20 µg/mL in each case. Moreover, the EC50 (in the assay with HT-1080; in assay [1]; with P388; in the assay on A-431; in assay [2]) was above 20 µg/mL in each case. In addition, the result in the assay with ASK was inactive.

Source of the values: ChEMBL document CHEMBL1159030, “Plant anticancer agents, L. cytotoxic triterpenes from Sandoricum koetjape stems” (1992).
